ChEMBL document CHEMBL1201862, “PubChem BioAssay data set” (2004)
Activity calls are given as the source filed them.

Assays:
[1] = Luminescence Cell-Based Dose Response HTS to Identify Activators of Luciferase Translation or Activity in H4 […] Cells. [Related pubchem assays: 1829 (Project Summary), 1814 (Primary HTS)]; format: functional
[2] = tested on: H4; experiment: Luminescence Cell-Based Dose Response HTS to Identify Activators of 5'UTR Stem-Loop Driven Prion Protein mRNA Translation in H4 Neuroglioblastoma Cells. [Related pubchem assays: 1829 (Project Summary), 1814 (Primary HTS)]; format: functional; conditions: Homo sapiens
[3] = molecular target: Induced myeloid leukemia cell differentiation protein Mcl-1 (Homo sapiens, UniProt Q07820); format: functional
[4] = molecular target: T1, Leucine aminopeptidase (Plasmodium falciparum 3D7, UniProt Q8IL11); experiment: P. falciparum M17LAP inhibitors, primary screen, biochemical, fluorogenic H-Leu-NHMec substrate, 1536-well (AID 1619); format: functional
T1 sequence (Q8IL11 whole entry): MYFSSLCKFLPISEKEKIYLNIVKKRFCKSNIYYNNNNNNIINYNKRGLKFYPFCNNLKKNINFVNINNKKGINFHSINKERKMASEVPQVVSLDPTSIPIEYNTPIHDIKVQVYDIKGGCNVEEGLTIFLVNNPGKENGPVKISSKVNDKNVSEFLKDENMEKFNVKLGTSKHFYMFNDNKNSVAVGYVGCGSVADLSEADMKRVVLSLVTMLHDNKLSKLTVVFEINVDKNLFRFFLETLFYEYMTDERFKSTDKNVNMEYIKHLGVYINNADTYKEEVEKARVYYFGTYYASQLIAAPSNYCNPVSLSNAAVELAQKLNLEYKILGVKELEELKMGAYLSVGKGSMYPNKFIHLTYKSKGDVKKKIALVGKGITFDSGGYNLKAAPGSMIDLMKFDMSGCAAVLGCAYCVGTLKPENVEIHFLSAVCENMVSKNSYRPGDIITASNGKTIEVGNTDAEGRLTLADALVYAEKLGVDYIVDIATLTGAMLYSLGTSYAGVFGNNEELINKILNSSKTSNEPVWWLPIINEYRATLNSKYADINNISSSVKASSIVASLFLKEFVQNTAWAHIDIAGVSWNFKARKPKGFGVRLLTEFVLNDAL

[5] = molecular target: FAD-linked sulfhydryl oxidase ALR (Homo sapiens, UniProt P55789); experiment: inhibitors of human ALR sulfhydryl oxidase, dose response, biochemical, H2O2 detection, luminescence, cherry-pick (AID 493248)
[6] = molecular target: T2, Polyadenylate-binding protein 1 (Homo sapiens, UniProt P11940); experiment: PABP1 MLLE–PAM2 interaction inhibitors, dose response, miRNA deadenylation inhibitor project, biochemical, fluorescence polarization, Cy5-PAM2 peptide, secondary (AID 602260); format: functional; conditions: read-out: IC50_Mean
[7] = molecular target: T2, Polyadenylate-binding protein 1; experiment: PABP1 MLLE–PAM2 binding inhibitor potency, dose response, biochemical, fluorescence polarization, FITC-PAM2 peptide (AID 602259); format: functional; conditions: read-out: IC50_Mean
[8] = tested on: BJ; experiment: cytotoxicity toward BJ-TERT fibroblasts, dose response, cell-based, RAS-independent, luminescence (AID 1933); format: functional; conditions: Homo sapiens
[9] = cytotoxicity toward DRD oncogenic fibroblasts, dose response, cell-based, non-viral oncogenic, luminescence (AID 1934); format: functional; conditions: Homo sapiens
[10] = tested on: BJ; experiment: cells; format: functional, cell-based; conditions: Homo sapiens
[11] = tested on: BJ; experiment: cytotoxicity toward BJ-TERT-LT-ST fibroblasts, dose response, cell-based, RAS-independent, luminescence (AID 1935); format: functional; conditions: Homo sapiens;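 note: BJ fibroblasts immortalized with TERT plus LT and ST oncogenes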
[12] = inhibitors of firefly luciferase expression or activity, dose response, H4 neuroglioma cells, luminescence (AID 1990); format: functional, cell-based
[13] = NIH-3T3 fibroblast cytotoxicity, dose response, cytotoxicity control, cell-based, fluorescence, Alamar Blue, secondary assay (AID 2327); format: functional;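 note: NIH-3T3 mouse fibroblasts cultured with fluconazole at 8 µg/mL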
[14] = tested on: INS1; experiment: beta cell apoptosis inhibitors, cytokine rescue, dose response, luminescence, retest (AID 449756); format: functional, cell-based; conditions: Rattus norvegicus;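 note: cell death triggered by IL-1 beta plus TNF-alpha plus IFN-gamma mixture; protective hits raise ATP signal compared with cytokine alone wells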
[15] = inhibitors of SNCA 5'UTR-driven reporter translation, confirmation, H4 neuroglioma cells, luminescence (AID 1988); format: functional, cell-based
[16] = Luminescence Cell-Based Dose Response HTS to Identify Inhibitors of 5'UTR Stem-Loop Driven Prion Protein mRNA Translation in H4 Neuroglioblastoma Cells. [Related pubchem assays: 1827 (Project Summary), 1813 (Primary HTS)]; format: functional
[17] = C. albicans growth with fluconazole, confirmation, fluorescence, retest (AID 2467); format: functional, cell-based
[18] = molecular target: T3, RNA-binding protein pos-1 (Caenorhabditis elegans, UniProt G5EF15); experiment: inhibitors of POS-1/mex-3 RNA binding, dose response, biochemical, fluorescence polarization (AID 1964);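 note: purified POS-1 fused to maltose binding protein made in E. coli; potency of compounds blocking POS-1 binding to fluorescent RNA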
T3 sequence (G5EF15 whole entry): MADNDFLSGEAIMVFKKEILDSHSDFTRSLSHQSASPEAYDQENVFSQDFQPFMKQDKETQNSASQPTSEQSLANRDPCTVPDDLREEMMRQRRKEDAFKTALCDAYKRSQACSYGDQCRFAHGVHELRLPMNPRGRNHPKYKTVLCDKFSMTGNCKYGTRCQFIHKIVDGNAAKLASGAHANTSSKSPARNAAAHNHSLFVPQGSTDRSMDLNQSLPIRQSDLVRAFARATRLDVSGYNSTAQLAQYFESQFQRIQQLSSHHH

[19] = molecular target: T4, Zinc finger protein mex-5 (Caenorhabditis elegans, UniProt Q9XUB2); experiment: MEX-5/TCR-2 RNA interaction inhibitors, dose response, biochemical, C. elegans, fluorescence polarization (AID 1960)
T4 sequence (Q9XUB2 whole entry): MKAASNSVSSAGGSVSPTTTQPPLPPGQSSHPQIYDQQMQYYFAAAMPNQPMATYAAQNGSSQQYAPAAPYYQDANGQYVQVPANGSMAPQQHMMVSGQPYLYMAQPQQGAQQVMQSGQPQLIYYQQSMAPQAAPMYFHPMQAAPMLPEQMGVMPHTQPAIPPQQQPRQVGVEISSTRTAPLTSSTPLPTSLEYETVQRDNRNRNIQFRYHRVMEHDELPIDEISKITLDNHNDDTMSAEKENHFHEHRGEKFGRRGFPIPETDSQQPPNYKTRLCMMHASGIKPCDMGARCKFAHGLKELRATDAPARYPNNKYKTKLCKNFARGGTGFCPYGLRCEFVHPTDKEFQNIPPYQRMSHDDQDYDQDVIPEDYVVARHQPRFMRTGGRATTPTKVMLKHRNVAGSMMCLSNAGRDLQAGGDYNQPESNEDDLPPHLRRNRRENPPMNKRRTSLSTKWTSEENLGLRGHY

[20] = molecular target: T5, Corticotropin-releasing factor receptor 2/Corticotropin-releasing factor-binding protein (Homo sapiens, UniProt P24387+Q13324); experiment: activators of CRF receptor 2 with binding protein – uHTS hits, confirmation (AID 602473); format: functional; conditions: read-out: EC50_Mean
T5 sequence (Q13324 whole entry): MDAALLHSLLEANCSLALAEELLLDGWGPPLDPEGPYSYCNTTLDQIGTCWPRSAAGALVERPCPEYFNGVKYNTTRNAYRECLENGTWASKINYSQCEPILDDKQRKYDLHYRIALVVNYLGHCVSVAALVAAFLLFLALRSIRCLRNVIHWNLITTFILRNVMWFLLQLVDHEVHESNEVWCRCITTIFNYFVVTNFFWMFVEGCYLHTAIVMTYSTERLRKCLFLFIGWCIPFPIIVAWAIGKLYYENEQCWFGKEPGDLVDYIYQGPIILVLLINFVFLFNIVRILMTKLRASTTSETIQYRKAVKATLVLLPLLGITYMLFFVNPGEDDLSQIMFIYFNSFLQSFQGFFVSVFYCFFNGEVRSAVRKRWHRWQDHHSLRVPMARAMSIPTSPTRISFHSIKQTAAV
T5 sequence (P24387 whole entry): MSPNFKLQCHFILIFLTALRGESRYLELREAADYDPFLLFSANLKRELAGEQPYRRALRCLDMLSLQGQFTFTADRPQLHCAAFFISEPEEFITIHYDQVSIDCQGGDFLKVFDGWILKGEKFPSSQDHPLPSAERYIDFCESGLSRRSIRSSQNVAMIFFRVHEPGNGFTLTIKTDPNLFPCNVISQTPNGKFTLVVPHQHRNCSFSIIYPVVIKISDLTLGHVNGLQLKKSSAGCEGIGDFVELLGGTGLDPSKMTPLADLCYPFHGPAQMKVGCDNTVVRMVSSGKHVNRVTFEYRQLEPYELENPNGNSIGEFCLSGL

[21] = molecular target: Paired box protein Pax-8 (Homo sapiens, UniProt Q06710); experiment: inhibitors of PAX8-driven TPO luciferase reporter, dose response, RMG-I cells, cherry-pick (AID 687027); format: functional, cell-based;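 note: luciferase reporter driven by Pax8 target thyroperoxidase promoter measured by SteadyGlo luminescence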
[22] = cells; format: functional, cell-based
[23] = cells; format: functional, cell-based; remark: listed apart in the source

T2 sequence (P11940 whole entry): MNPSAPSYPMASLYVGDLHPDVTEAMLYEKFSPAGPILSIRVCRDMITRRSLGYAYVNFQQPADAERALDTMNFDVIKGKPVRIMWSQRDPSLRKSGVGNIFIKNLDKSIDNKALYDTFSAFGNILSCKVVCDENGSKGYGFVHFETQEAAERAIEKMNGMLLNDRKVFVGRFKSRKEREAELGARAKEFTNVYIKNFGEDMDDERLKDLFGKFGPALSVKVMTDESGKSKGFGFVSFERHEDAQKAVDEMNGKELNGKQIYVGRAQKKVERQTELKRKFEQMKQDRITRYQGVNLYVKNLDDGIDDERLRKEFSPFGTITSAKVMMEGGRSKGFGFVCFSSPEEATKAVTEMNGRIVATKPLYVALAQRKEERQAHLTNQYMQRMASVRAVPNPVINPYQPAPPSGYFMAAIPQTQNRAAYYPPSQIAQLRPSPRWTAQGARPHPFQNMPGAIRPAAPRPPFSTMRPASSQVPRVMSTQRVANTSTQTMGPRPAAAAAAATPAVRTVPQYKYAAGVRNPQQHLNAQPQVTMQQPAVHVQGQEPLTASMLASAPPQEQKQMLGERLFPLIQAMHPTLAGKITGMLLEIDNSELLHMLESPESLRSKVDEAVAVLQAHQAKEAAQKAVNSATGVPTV
FAD-linked sulfhydryl oxidase ALR, sequence (P55789 whole entry): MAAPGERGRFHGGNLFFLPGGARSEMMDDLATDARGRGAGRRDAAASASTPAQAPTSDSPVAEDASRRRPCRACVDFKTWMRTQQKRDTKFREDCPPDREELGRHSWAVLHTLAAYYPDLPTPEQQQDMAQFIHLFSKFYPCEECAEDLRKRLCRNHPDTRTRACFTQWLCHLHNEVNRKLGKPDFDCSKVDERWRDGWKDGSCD
Paired box protein Pax-8, sequence (Q06710 whole entry): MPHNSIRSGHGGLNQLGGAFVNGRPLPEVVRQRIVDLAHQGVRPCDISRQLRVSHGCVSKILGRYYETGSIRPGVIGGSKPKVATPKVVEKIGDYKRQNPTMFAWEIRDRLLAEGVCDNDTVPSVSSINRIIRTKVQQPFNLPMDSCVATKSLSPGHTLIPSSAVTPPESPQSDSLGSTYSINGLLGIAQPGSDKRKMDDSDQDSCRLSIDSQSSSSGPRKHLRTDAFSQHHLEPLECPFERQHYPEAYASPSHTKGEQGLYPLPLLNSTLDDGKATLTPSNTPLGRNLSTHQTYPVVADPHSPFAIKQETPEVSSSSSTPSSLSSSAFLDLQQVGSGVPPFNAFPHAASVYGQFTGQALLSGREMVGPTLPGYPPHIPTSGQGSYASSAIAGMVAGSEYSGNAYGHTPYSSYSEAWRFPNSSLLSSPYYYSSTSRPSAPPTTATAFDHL
Induced myeloid leukemia cell differentiation protein Mcl-1, sequence (Q07820 whole entry): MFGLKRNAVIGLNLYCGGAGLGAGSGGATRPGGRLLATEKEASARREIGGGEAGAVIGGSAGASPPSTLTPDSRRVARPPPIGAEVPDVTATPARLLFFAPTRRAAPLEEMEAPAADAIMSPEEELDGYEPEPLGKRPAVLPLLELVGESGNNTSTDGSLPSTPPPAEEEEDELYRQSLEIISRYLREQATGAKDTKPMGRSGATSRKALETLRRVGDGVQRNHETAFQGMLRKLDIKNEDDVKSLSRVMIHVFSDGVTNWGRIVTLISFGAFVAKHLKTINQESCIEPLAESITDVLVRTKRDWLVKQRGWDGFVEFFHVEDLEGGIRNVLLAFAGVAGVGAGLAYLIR

SMILES: CC(=O)c1sc2nc(-c3cccs3)ccc2c1N
- EC50 [1]: > 120 µM (not active)
- EC50 [2]: 33.2 µM (inconclusive)
- IC50 [3]: 7.08 µM (not active)

SMILES: O=C(O)C1CC=CCC1C(=O)Nc1ccc2c(c1)OCCO2 (centres undefined)
- IC50 [4]: 13.4 µM (active)

SMILES: CCS(=O)(=O)N1Cc2ccccc2CC1C(=O)N1CCN(c2ccccc2)CC1 (centres undefined)
- AC50 [5]: 12.1 µM (active)

SMILES: COc1ccc(OC)c(C(=O)N2CCCC(Nc3ccc(F)cc3)C2)c1 (centres undefined)
- AC50 [5]: 1.92 µM (active)

SMILES: CCc1cc(C(=O)c2ccccc2OC)c(N)s1
- IC50 [6]: > 66 µM (inactive)
- IC50 [7]: > 66 µM (inactive)

SMILES: Cc1ccc(C(=O)Nc2nc(-c3ccc([N+](=O)[O-])cc3)cs2)o1
- AC50 [5]: 0.675 µM (active)

SMILES: CC(=O)Nc1c(O)nc(SCC(=O)Nc2cccc(C)c2)[nH]c1=O
- IC50 [4]: 9.85 µM (active)

SMILES: Cn1c(=O)c(C(=O)COC(=O)c2cc(-c3ccco3)nc3ccccc23)c(N)n(CC2CC2)c1=O
- IC50 [3]: 1.99 µM (active)

SMILES: c1csc(-c2nc3ccccn3c2NC2CCCCC2)c1
- AC50 [5]: 0.678 µM (active)

SMILES: CCCOc1ccc(NC(=O)C2CC(=O)N(C(C)C)C2)cc1 (centres undefined)
- IC50 [4]: 99.7 µM (active)

SMILES: O=C(O)c1ccc(N2C(=O)/C(=C/c3nc4ccccc4[nH]3)SC2=S)cc1
- AC50 [5]: 0.009 µM (active)

SMILES: O=C(CN1C(=O)S/C(=C\c2ccccc2)C1=O)NCCCn1ccnc1
- IC50 [6]: > 66 µM (inactive)
- IC50 [7]: > 66 µM (inactive)

SMILES: CSc1cc(-c2ccccc2)n(Cc2c(Cl)cccc2Cl)c(=O)c1C#N
- EC50 [8]: 5.96 µM (active)
- EC50 [9]: 3.1 µM (active)
- EC50 [10]: 64.7 µM (inconclusive)
- EC50 [11]: 2.86 µM (active)

SMILES: [O-]c1ccccc1-[n+]1c(-c2ccccc2)cc(-c2ccccc2)cc1-c1ccccc1
- EC50 [8]: 11.7 µM (active)
- EC50 [12]: > 120 µM (not active)
- EC50 [9]: 11.4 µM (active)
- EC50 [13]: > 160 µM (inconclusive)
- AC50 [14]: 6.35 µM (active)
- EC50 [15]: > 120 µM (not active)
- EC50 [16]: > 120 µM (not active)
- EC50 [10]: 14.2 µM (active)
- EC50 [17]: 0.85 µM (active)
- EC50 [11]: > 150 µM (inconclusive)

SMILES: COc1ccc(C2C(C(=O)c3ccco3)=C(O)C(=O)N2c2nnc(C)s2)cc1OC (centres undefined)
- EC50 [18]: > 300 µM (not active)
- IC50 [6]: > 66 µM (inactive)
- IC50 [7]: 50.4 µM (inactive)
- EC50 [19]: 297 µM (active)

SMILES: O=C(NCC(c1cccnc1)N1CCN(c2ccccc2)CC1)OCc1ccccc1 (centres undefined)
- AC50 [5]: 6.15 µM (active)

SMILES: CN(C)c1ccc(CNC(=O)c2cc(S(=O)(=O)N3CCCC3)cn2C)cc1
- AC50 [5]: 8.78 µM (active)

SMILES: O=C(Cc1ccc(Cl)cc1)NC(=S)Nc1ccccc1O
- IC50 [6]: > 66 µM (inactive)
- IC50 [7]: > 66 µM (inactive)
- EC50 [20]: 5.99 µM (active)

SMILES: Cn1c(CCN2CCN(c3ccccn3)CC2)nc2cc(NS(=O)(=O)c3ccc(Cl)cc3)ccc21
- AC50 [21]: 8.15 µM (active)

SMILES: CC(=O)N1CCN=C1SCc1ccccc1F
- AC50 [5]: 13.9 µM (active)

SMILES: CCOC(=O)CSc1nc2c(sc(=S)n2-c2ccccc2)c(=O)[nH]1
- IC50 [4]: 35.6 µM (active)

SMILES: Cc1cc(O)nc(SCC(=O)Nc2ccccc2C#N)c1C#N
- IC50 [4]: 13.9 µM (active)

SMILES: O=C1c2ccccc2-c2cc3ccccc3cc21
- IC50 [6]: > 66 µM (inactive)
- IC50 [7]: > 66 µM (inactive)

SMILES: Cn1nccc1C(=O)N/N=C/c1c(O)ccc2ccccc12
- EC50 [22]: 5.93 µM (active)
- EC50 [8]: 1.61 µM (active)
- EC50 [9]: 1.59 µM (active)
- AC50 [14]: 0.856 µM (active)
- EC50 [10]: 7.69 µM (active)
- EC50 [11]: 4.66 µM (active)
- EC50 [23]: 38.7 µM (active)

SMILES: C[C@@H]1CN([C@@H](C)CO)S(=O)(=O)c2ccc(C#Cc3ccc(F)cc3)cc2O[C@H]1CN(C)C(=O)NC1CCCCC1
- AC50 [21]: 7.93 µM (active)

SMILES: CC1=NNC(=O)C1CC(=O)N/N=C(\C)c1cccs1 (centres undefined)
- IC50 [4]: 3.56 µM (active)
